# Assay results from the NIST ThermoML archive (doi:10.1016/j.tca.2018.05.010).
# Values joined by “and” are separate entries in the source; they are usually repeats but may differ in a detail not shown here. Equal entries are not always repeated. Numbers after ± are expanded uncertainties.
# Columns and labels:
# [1] = Crystal; for vapor or sublimation pressure: Transpiration method; for Normal melting temperature: DTA
# [2] = Molar enthalpy of transition or fusion; details: Crystal; DSC
SMILES,vapor or sublimation pressure ([1]; 362.7 K),vapor or sublimation pressure ([1]; 367.8 K),vapor or sublimation pressure ([1]; 373 K),vapor or sublimation pressure ([1]; 378 K),vapor or sublimation pressure ([1]; 383 K),vapor or sublimation pressure ([1]; 388 K),vapor or sublimation pressure ([1]; 392.7 K),Normal melting temperature [1],Molar enthalpy of transition or fusion [2],vapor or sublimation pressure ([1]; 352.9 K),vapor or sublimation pressure ([1]; 358.2 K),vapor or sublimation pressure ([1]; 362.9 K),vapor or sublimation pressure ([1]; 373.2 K),vapor or sublimation pressure ([1]; 387.9 K)
O=C(O)[C@@H](O)c1ccccc1 [(S)-2-hydroxy-2-phenylacetic acid],0.0016 ± 0.00062 kPa,0.00264 ± 0.001 kPa,0.00431 ± 0.0016 kPa,0.00647 ± 0.0026 kPa,0.0109 ± 0.0042 kPa and 0.0107 ± 0.0041 kPa,0.0164 ± 0.0061 kPa,0.0241 ± 0.0088 kPa,134.6 ± 1.1 °C,5.93 ± 0.143 kcal/mol,,,,,
O=C(O)C(O)c1ccccc1 (stereo not drawn) [mandelic acid],,0.00284 ± 0.0011 kPa,,0.0076 ± 0.003 kPa and 0.00771 ± 0.0031 kPa,,,,121.2 ± 1.1 °C,6 ± 0.167 kcal/mol,0.00068 ± 0.0003 kPa,0.00116 ± 0.00048 kPa,0.00193 ± 0.00074 kPa,0.0051 ± 0.0022 kPa,0.0179 ± 0.0067 kPa
